Values of other authors, collected in patent publication US20100239707A1 (priority 2007, published 2010).
Entries after “also recorded” stand apart in the source; their conditions may differ.

What was measured:
[1] = test system: myotubes
[2] = unprimed
[3] = test system: cell culture cells
[4] = not given; remark: listed apart in the source

Row | Compound | effect on muscle fibers / myotubes [1] | also measured
1 | COc1cc2c(c(OC)c1OC)-c1ccc(OC)c(=O)cc1[C@@H](NC(C)=O)CC2 [colchicine] | causes the disassembly of myotubes | 
2 | lipopolysaccharide [LPS] |  | LD50 [2]: ~1 mg/kg
3 | [Ca+2].[Cl-].[Cl-] [anhydrous CaCl2, CaCl2] |  | intravenous LD50: about 40 mg/kg
4 | OO [hydrogen peroxide] |  | concentration inducing apoptosis [3]: micromolar concentrations
5 | CC[C@]1(O)C[C@@H]2CN(CCc3c([nH]c4ccccc34)[C@@](C(=O)OC)(c3cc4c(cc3OC)N(C)[C@H]3[C@@](O)(C(=O)OC)[C@H](OC(C)=O)[C@]5(CC)C=CCN6CC[C@]43[C@@H]65)C2)C1 [vinblastine] | causes the disassembly of myotubes | oral LD50 [4]: 300 to 400 mg/kg
6 | COc1ccc(CNc2nc(NCc3ccc(OC)cc3)c3ncn(C(C)C)c3n2)cc1 [myoseverin] | result in cell fission with cells that exhibit DNA sysnthesis and cell growth | 
7 | COC(=O)Nc1nc2ccc(C(=O)c3cccs3)cc2[nH]1 [nocodazole] | causes the disassembly of myotubes; also recorded: result in cell fission with cells that exhibit DNA sysnthesis and cell growth | 
8 | CC(=O)O[C@H]1C(=O)[C@@]2(C)[C@H]([C@H](OC(=O)c3ccccc3)[C@]3(O)C[C@H](OC(=O)[C@H](O)[C@@H](NC(=O)c4ccccc4)c4ccccc4)C(C)=C1C3(C)C)[C@]1(OC(C)=O)CO[C@@H]1C[C@@H]2O [taxol] | causes the disassembly of myotubes | intravenous LD50: 33 mg/kg
